Measured values as given in PubChem BioAssay (NCI).
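Exposure lasted 48 hours, with cells grown in 96-well plates and compounds tested at five concentrations. GI50: concentration for 50% inhibition of growth. At the TGI there is no net growth.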

Experiments:
Assay in all cases: DTP human tumour cell line panel, 48 h
HCC-2998 colon = test system: HCC-2998 colon
NCI-H460 lung = test system: NCI-H460 lung
IGROV1 ovarian = test system: IGROV1 ovarian
786-0 renal = test system: 786-0 renal
EKVX NSCLC = test system: EKVX NSCLC
ACHN renal = test system: ACHN renal
SK-OV-3 ovarian = test system: SK-OV-3 ovarian
OVCAR-4 ovarian = test system: OVCAR-4 ovarian
NCI-H226 lung = test system: NCI-H226 lung
PC-3 prostate = test system: PC-3 prostate

Structure (SMILES) | TGI (HCC-2998 colon) [µM] | TGI (NCI-H460 lung) [µM] | TGI (IGROV1 ovarian) [µM] | TGI (786-0 renal) [µM] | TGI (EKVX NSCLC) [µM] | TGI (ACHN renal) [µM] | TGI (SK-OV-3 ovarian) [µM] | TGI (OVCAR-4 ovarian) [µM] | TGI (NCI-H226 lung) [µM] | TGI (PC-3 prostate) [µM] | GI50 (HCC-2998 colon) [µM] | GI50 (IGROV1 ovarian) [µM] | GI50 (786-0 renal) [µM] | GI50 (NCI-H226 lung) [µM] | GI50 (ACHN renal) [µM] | GI50 (SK-OV-3 ovarian) [µM] | GI50 (OVCAR-4 ovarian) [µM] | GI50 (PC-3 prostate) [µM] | GI50 (NCI-H460 lung) [µM] | GI50 (EKVX NSCLC) [µM]
CC1=NN(C(=O)c2ccc(Cl)cc2)C(=O)/C1=C/c1ccccc1O | > 100 | > 100 | > 100 | > 100 | > 100 | > 100 | > 100 | > 100 | – | – | – | – | – | – | – | – | – | – | – | –
c1cncc(CNCc2cccnc2)c1 | – | > 100 | > 100 | > 100 | > 100 | > 100 | > 100 | > 100 | > 100 | > 100 | – | – | – | – | – | – | – | – | – | –
C1CC2CN(CCCN3CCOCC3)C(C1)O2 (configuration not stated) | – | > 100 | > 100 | > 100 | > 100 | > 100 | > 100 | > 100 | > 100 | > 100 | – | – | – | – | – | – | – | – | – | –
NCCOCCOCCNc1nc(-c2ccc(Cl)cc2)nc(N2CCN(c3ccccn3)CC2)n1 | 3.29 | – | 7.04 | 3.61 | – | 6.43 | 6.28 | 10.5 | 39.9 | 3.92 | 1.75 | 2.81 | 1.83 | 13.7 | 2.48 | 2.67 | 2.78 | 1.89 | – | –
CN1CCc2c1nc(-c1ccc(Cl)cc1)c1c2N(C)CC1 | 65 | 40.4 | > 100 | > 100 | > 100 | 55.6 | 59.8 | > 100 | – | – | – | – | – | – | – | – | – | – | – | –
Cc1nn2c(/C=C3/C(=O)Nc4cc(Cl)ccc43)c(-c3ccccc3)nc2s1 | > 100 | > 100 | 4.62 | 4.37 | – | 3.08 | > 100 | 3.39 | 63.7 | > 100 | > 100 | 2.07 | 2.15 | 4.56 | 1.54 | 14.3 | 1.59 | 13.8 | 3.72 | –
CC(C)(C)OC(=O)NCCCn1c2c(c3ccccc3c1=O)C(=O)c1ccccc1-2 | – | > 100 | > 100 | 41.6 | > 100 | 67.9 | > 100 | – | > 100 | > 100 | – | > 100 | 15.1 | 63.5 | 14.3 | 25 | – | 51.5 | 33.9 | 38.9
C=CCC1=C(C)C[C@@H]2CCC(=O)C=C12 | – | > 100 | > 100 | > 100 | > 100 | > 100 | > 100 | > 100 | – | – | – | – | – | – | – | – | – | – | – | –
COC(=O)c1c2c(cc3c1CC1(Cc4cc5c(c(C(C)=O)c4C1)CCC5)C3)CCC2 (configuration not stated) | > 100 | > 100 | > 100 | > 100 | – | > 100 | – | > 100 | – | – | – | – | – | – | – | – | – | – | – | –
C1CC[N-]CC1.CC(=N\O)/C(C)=N/O.CC(=N\O)/C(C)=N/O.OC1[CH-]CCCC1.[Co+2] | – | > 100 | > 100 | > 100 | > 100 | > 100 | > 100 | > 100 | > 100 | > 100 | – | 44.9 | 61.8 | > 100 | 76.3 | > 100 | 72.7 | 36.6 | 30.8 | 31.1
C#Cc1c(C)c(/C=C/C(C)=C/C(=O)OC)n(C)c1C | > 100 | – | > 100 | > 100 | > 100 | > 100 | > 100 | > 100 | > 100 | – | – | – | – | – | – | – | – | – | – | –
COc1ccc(/C(Cl)=C/c2cc(OC)ccc2OC)cc1 | > 100 | – | > 100 | > 100 | > 100 | > 100 | > 100 | > 100 | > 100 | – | – | – | – | – | – | – | – | – | – | –
COc1ccc(CCn2c(=O)c3ccccc3n(C)c2=O)cc1 | > 100 | > 100 | > 100 | > 100 | > 100 | > 100 | > 100 | > 100 | – | – | – | – | – | – | – | – | – | – | – | –
CC(=O)O[C@]1(C)OC(=O)[C@@H](CC(C)C)N1[N+](=O)[O-] | > 100 | > 100 | > 100 | > 100 | > 100 | > 100 | > 100 | > 100 | > 100 | – | – | – | – | – | – | – | – | – | – | –
CCOC(=O)N1CCc2cc(OC)c(OC)cc2/C1=C\c1ccc(OC)c(OC)c1 | > 100 | – | > 100 | 52.1 | 89.2 | 94 | > 100 | – | 61.2 | – | – | – | – | – | – | – | – | – | – | –
O=c1[nH]c2nc(NC3CCOCC3)ncc2cc1Oc1ccc(F)cc1F | > 25 | > 25 | > 25 | > 25 | – | > 25 | > 25 | > 25 | > 25 | > 25 | > 25 | > 25 | > 25 | > 25 | > 25 | > 25 | > 25 | > 25 | > 25 | –
CC(=O)[O-].[Mn+3].[O-]c1ccccc1C=NCCNCCN=Cc1ccccc1[O-] | – | > 100 | > 100 | > 100 | – | > 100 | > 100 | > 100 | > 100 | – | – | > 100 | > 100 | > 100 | > 100 | > 100 | > 100 | – | > 100 | –
COc1cc(NC(=O)CCSc2nc3ccc(C)cc3c(=O)n2Cc2ccccc2)cc(OC)c1OC | > 100 | > 100 | > 100 | 19.2 | – | 34.9 | 39.3 | > 100 | 12.3 | > 100 | > 100 | 27.7 | 4.17 | 2.66 | 3.72 | 4.75 | 3.95 | 5.39 | 5.31 | –
C[Si](C)(C)/C=C\CCO | > 100 | > 100 | > 100 | > 100 | > 100 | > 100 | > 100 | – | – | – | – | – | – | – | – | – | – | – | – | –
